# Measured values published in US20080014162A1, “Method to treat skin in need of a calmative using at least one C-Glycoside derivative” (L'OREAL, priority 2006, published 2008).
# Legend:
# [1] = tested on: interleukin-8 secreted by normal human epidermal keratinocytes (NHEK); assay: Assay of IL8 without stimulation in normal human epidermal keratinocytes; format: cell-based; conditions: concentration 2%
# Text: Dermatol., 102: 915-922 (1994)].
# [2] = tested on: interleukin-8 secreted by normal human epidermal keratinocytes (NHEK) after stimulation with retinol; assay: Assay of IL8 + stimulation with retinol in normal human epidermal keratinocytes (anti-irritant effect); conditions: for % blank (+retinol): IL8 as % of blank (+retinol); for IL8: 24 hours at 37° C.
# Protocol: This test allows evaluation of the anti-irritant potential of various molecules, on a human keratinocyte (NHEK) cell line. In this test, an irritant situation is mimicked by exacerbating the production of IL-8 by the NHEKs by addition of retinol to the culture medium, Il-8 being involved in the initiation of keratinocyte irritation. Next, the anti-irritant effect of a C-glycoside compound is measured by means of its inhibitory action with respect to this exacerbated production.
# Normal human epidermal keratinocytes are incubated in the presence of 10^−6 M retinol for 24 hours at 37° C. In response to the retinol, the production of the chemotactic agent interleukine 8 (IL-8) is measured via enzymatic assay using an assay kit (Elisa D8050) sold by the company R&D. The absorbance values are measured with a microplate reader (MRX/Dynatech) according to the procedures supplied with the assay kit.
# A control test is also performed with dexamethasone, which is a reference calmative.
# The results are expressed as a percentage of the control values after subtracting the background noise and as a percentage of inhibition of these values obtained in the presence of the compounds.
# [3] = NHEK + 10^−6 M retinol, 24 hours, concentration 2%
SMILES,% blank ([1]; IL8 as % of blank) [%],% viability [1] [%],IL8 [1] [pg/mL],"% blank (+retinol) [2, 3] [%]","IL8 ([2]; NHEK + 10^−6 M retinol, concentration 2%) [pg/mL]","% viability [2, 3] [%]",effect on the irritant reaction of retinol ([2]; conclusion in words from the IL8 assay in NHEK),"% blank (+retinol) ([2]; NHEK + 10^−6 M retinol, 24 hours, concentration 10^−7M) [%]","IL8 ([2]; NHEK + 10^−6 M retinol, concentration 10^−7M) [pg/mL]"
CC(O)C[C@@H]1OC[C@@H](O)[C@H](O)[C@H]1O (stereo partly drawn) [C-β-D-xylopyranoside-2-hydroxypropane],53,97,145.2,60,124.4,104,reduces the irritant reaction of retinol,–,–
"C[C@@H]1C[C@H]2[C@@H]3CCC4=CC(=O)C=C[C@]4(C)[C@@]3(F)[C@@H](O)C[C@]2(C)[C@@]1(O)C(=O)CO [Dexamethasone, reference compound]",–,–,–,–,–,–,–,57,117.7
